Reference: patent US20240174659A1, “COMPOUNDS AND METHODS FOR YAP/TEAD MODULATION AND INDICATIONS THEREFOR” (Opna Bio SA, priority 2021, published 2024)
Counter-ions that a name gives are not always drawn.

Test system: TEAD-dependent transcription
Test: Inhibitor activity against TEAD-dependent transcription in a cell-based reporter assay (MSTO-211H+12XGTIIC luciferase)
Settings: Homo sapiens; MSTO-211H+12XGTIIC cells, 24 hours incubation, luciferase luminescence normalized to cell viability fluorescence, geometric mean; read-out: MSTO-211H GMean IC50 (uM) Cell Assay Reporter Cell Variant: TEAD
How it was run: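 MSTO-211H mesothelioma cells stably carrying a 12xGTIIC TEAD-response-element luciferase reporter, treated with serial compound dilutions for 24 h at 37 °C. Luminescence normalized to CellTiter-Fluor viability signal; % inhibition versus DMSO and 20 μM K-975 controls, IC50 by nonlinear regression.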

Row | Structure (SMILES) | IC50 [µM]
1 | C=CC(=O)N1Cc2cc(Oc3ccc(C(F)(F)F)nc3)ccc2C(C)C1 (stereo not shown) [P-0093, 1-(4-methyl-7-((6-(trifluoromethyl)pyridin-3-yl)oxy)-3,4-dihydroisoquinolin-2(1H)-yl)prop-2-en-1-one] | 0.001 to 0.5
2 | C=CC(=O)N1CCc2ccc(Oc3ccc(OC(F)(F)F)cc3)cc2C1 [P-0052, 1-(7-(4-(trifluoromethoxy)phenoxy)-3,4-dihydroisoquinolin-2(1H)-yl)prop-2-en-1-one] | > 20
3 | [2H]C([2H])=C([2H])C(=O)N1CCc2ccc(Oc3ccc(C(F)(F)F)c(F)c3)cc2C1 [P-0049, 1-(7-(3-fluoro-4-(trifluoromethyl)phenoxy)-3,4-dihydroisoquinolin-2(1H)-yl)prop-2-en-1-one-2,3,3-d3] | 0.001 to 0.5
4 | C=CC(=O)N1CCc2cc(F)c(Oc3ccc(C(F)(F)F)c(F)c3)cc2C1 [P-0098, 1-(6-fluoro-7-(3-fluoro-4-(trifluoromethyl)phenoxy)-3,4-dihydroisoquinolin-2(1H)-yl)prop-2-en-1-one] | 0.001 to 0.5
5 | C=CC(=O)N1CCc2ccc(Cc3cccc(F)c3)cc2C1 [P-0034, 1-(7-(3-fluorobenzyl)-3,4-dihydroisoquinolin-2(1H)-yl)prop-2-en-1-one] | 0.001 to 0.5
6 | C=CC(=O)N1CCc2ccc(C(F)c3ccc(C(F)(F)F)nc3)cc2C1 (stereo not shown) [P-0105, 1-(7-(fluoro(6-(trifluoromethyl)pyridin-3-yl)methyl)-3,4-dihydroisoquinolin-2(1H)-yl)prop-2-en-1-one] | 0.5 to 20
7 | C=CC(=O)N1CCc2ccc(Oc3ccc(F)c(C4CC4)c3)cc2C1 [P-0048, 1-(7-(3-cyclopropyl-4-fluorophenoxy)-3,4-dihydroisoquinolin-2(1H)-yl)prop-2-en-1-one] | 0.001 to 0.5
8 | C=CC(=O)N1CCc2ccc(OC3CCC(C(F)(F)F)CC3)cc2C1 (stereo not shown) [P-0071, 1-(7-((4-(trifluoromethyl)cyclohexyl)oxy)-3,4-dihydroisoquinolin-2(1H)-yl)prop-2-en-1-one] | 0.001 to 0.5
9 | C=CC(=O)N1CCc2ccc(Oc3ccc(F)c(F)c3)cc2C1 [P-0016, 1-(7-(3,4-difluorophenoxy)-3,4-dihydroisoquinolin-2(1H)-yl)prop-2-en-1-one] | 0.001 to 0.5
10 | C=CC(=O)N1CCc2ccc(Oc3ccc(C(F)(F)F)cn3)cc2C1 [P-0053, 1-(7-((5-(trifluoromethyl)pyridin-2-yl)oxy)-3,4-dihydroisoquinolin-2(1H)-yl)prop-2-en-1-one formate] | 0.001 to 0.5
11 | C=CC(=O)N1CCc2ccc(OCC3CCC(F)(F)C3)cc2C1 (stereo not shown) [P-0130, 1-(7-((3,3-difluorocyclopentyl)methoxy)-3,4-dihydroisoquinolin-2(1H)-yl)prop-2-en-1-one] | 0.001 to 0.5
12 | C=CC(=O)N1CCc2ccc(Nc3ccc(F)cc3)cc2C1 [P-0023, 1-(7-((4-fluorophenyl)amino)-3,4-dihydroisoquinolin-2(1H)-yl)prop-2-en-1-one] | 0.001 to 0.5
13 | O=C(/C=C/Cl)N1CCc2ccc(Oc3ccc(C(F)(F)F)cc3)cc2C1 [P-0125, (E)-3-chloro-1-(7-(4-(trifluoromethyl)phenoxy)-3,4-dihydroisoquinolin-2(1H)-yl)prop-2-en-1-one] | 0.001 to 0.5
14 | C=CC(=O)N1CCc2ccc(Oc3cc(F)cc(F)c3)cc2C1 [P-0057, 1-(7-(3,5-difluorophenoxy)-3,4-dihydroisoquinolin-2(1H)-yl)prop-2-en-1-one] | 0.001 to 0.5
15 | C=CC(=O)N1CCc2cc(F)c(Oc3ccc(F)cc3)cc2C1 [P-0032, 1-(6-fluoro-7-(4-fluorophenoxy)-3,4-dihydroisoquinolin-2(1H)-yl)prop-2-en-1-one] | 0.001 to 0.5
16 | C=CC(=O)N1CCc2ccc(NC3CC4C(C3)C4(F)F)cc2C1 (stereo not shown) [P-0087, 1-(7-((6,6-difluorobicyclo[3.1.0]hexan-3-yl)amino)-3,4-dihydroisoquinolin-2(1H)-yl)prop-2-en-1-one] | 0.001 to 0.5
17 | C=CC(=O)N1CCc2ccc(OCc3cc(C)on3)cc2C1 [P-0081, 1-(7-((5-methylisoxazol-3-yl)methoxy)-3,4-dihydroisoquinolin-2(1H)-yl)prop-2-en-1-one] | > 20
18 | C=CC(=O)N1CCc2ccc(Oc3ccccc3)cc2C1 [P-0007, 1-(7-phenoxy-3,4-dihydroisoquinolin-2(1H)-yl)prop-2-en-1-one] | 0.001 to 0.5
19 | C=CC(=O)N1CCc2ccc(OC3CCC4(CC3)CC4)cc2C1 [P-0077, 1-(7-(spiro[2.5]octan-6-yloxy)-3,4-dihydroisoquinolin-2(1H)-yl)prop-2-en-1-one] | 0.001 to 0.5
20 | C=CC(=O)N1CCc2ccc(OC3CCCCC3)cc2C1 [P-0061, 1-(7-(cyclohexyloxy)-3,4-dihydroisoquinolin-2(1H)-yl)prop-2-en-1-one] | 0.001 to 0.5
21 | C=CC(=O)N1CCc2ccc(C(F)(F)c3ccc(C(F)(F)F)nc3)cc2C1 [P-0106, 1-(7-(difluoro(6-(trifluoromethyl)pyridin-3-yl)methyl)-3,4-dihydroisoquinolin-2(1H)-yl)prop-2-en-1-one] | 0.001 to 0.5
22 | C=CC(=O)N1CCc2ccc(OCc3cccc(F)c3)cc2C1 [P-0091, 1-(7-((3-fluorobenzyl)oxy)-3,4-dihydroisoquinolin-2(1H)-yl)prop-2-en-1-one] | 0.001 to 0.5
